The values that follow come from US8114882B2, “(1H-indol-7-yl)-(pyrimidin-2-ylamino)methanone derivatives and related compounds as IGF-R1 inhibitors for the treatment of cancer” (Merck Patent GmbH, priority 2005, dated 2012).

Molecules are shown by their SMILES.

For this experiment, the target named is T1, IGF-1R (Homo sapiens, UniProt P08069).
T1 construct: Cultivated human tumour cells which express the IGF1 receptor (IGF1R); endogenous in cells
T1 sequence (P08069 31-1367): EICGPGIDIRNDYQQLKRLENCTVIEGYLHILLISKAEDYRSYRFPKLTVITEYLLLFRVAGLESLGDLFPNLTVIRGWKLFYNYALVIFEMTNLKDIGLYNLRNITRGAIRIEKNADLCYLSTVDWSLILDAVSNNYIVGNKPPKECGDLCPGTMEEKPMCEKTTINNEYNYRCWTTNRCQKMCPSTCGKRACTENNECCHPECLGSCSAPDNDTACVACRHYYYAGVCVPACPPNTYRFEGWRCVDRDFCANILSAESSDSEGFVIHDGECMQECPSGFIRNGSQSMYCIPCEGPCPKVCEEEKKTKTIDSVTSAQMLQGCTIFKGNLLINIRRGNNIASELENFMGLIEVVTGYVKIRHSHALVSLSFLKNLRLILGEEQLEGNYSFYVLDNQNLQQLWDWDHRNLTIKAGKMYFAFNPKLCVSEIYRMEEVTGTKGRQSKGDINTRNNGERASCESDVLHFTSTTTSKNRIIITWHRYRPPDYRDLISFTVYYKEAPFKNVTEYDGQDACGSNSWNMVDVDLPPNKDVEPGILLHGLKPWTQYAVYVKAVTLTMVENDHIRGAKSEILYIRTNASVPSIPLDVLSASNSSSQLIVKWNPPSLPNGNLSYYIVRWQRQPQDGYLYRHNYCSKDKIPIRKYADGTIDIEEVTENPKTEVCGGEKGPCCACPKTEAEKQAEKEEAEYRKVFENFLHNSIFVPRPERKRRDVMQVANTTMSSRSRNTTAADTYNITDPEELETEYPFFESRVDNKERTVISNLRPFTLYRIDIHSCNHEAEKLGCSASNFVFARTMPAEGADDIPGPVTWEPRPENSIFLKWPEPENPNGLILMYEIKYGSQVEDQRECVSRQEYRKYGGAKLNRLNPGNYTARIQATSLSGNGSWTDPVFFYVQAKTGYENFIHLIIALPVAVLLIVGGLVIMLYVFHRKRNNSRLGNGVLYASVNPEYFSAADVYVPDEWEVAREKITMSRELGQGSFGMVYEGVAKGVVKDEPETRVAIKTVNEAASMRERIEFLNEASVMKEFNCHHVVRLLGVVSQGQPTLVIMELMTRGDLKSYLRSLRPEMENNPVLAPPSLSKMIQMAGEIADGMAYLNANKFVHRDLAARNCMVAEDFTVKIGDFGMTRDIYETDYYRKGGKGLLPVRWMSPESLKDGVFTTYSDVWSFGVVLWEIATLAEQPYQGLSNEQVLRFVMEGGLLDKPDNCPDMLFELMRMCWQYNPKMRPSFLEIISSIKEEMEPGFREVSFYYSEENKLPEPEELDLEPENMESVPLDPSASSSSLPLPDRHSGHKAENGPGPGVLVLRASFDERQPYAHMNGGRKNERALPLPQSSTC
Briefly: Inhibition of IGF-1R (IC50): IGF1-stimulated IGF1R autophosphorylation in human tumour cells, Capture-ELISA or LUMINEX. The format is cell-based. The settings on record: Table 1; human tumour cells expressing IGF1R (for example MCF-7 or Calu-6), 45 min pre-treatment, 5 min IGF1 stimulation. On the procedure:
Cultivated human tumour cells which express the IGF1 receptor (IGF1R) (for example MCF-7 or Calu-6) are stimulated using human IGF1, the natural ligand of IGF1R. The stimulation induces autophosphorylation of tyrosine residues in the cytoplasmatic IGF1R domain, which triggers signal transduction cascades, which result in apoptosis inhibition and cell proliferation.
The amount of phosphorylated IGF1R is determined by a receptor-specific Capture-ELISA or an analogous LUMINEX assay. The IGF1R from cell lysates is bound to a 96-well ELISA plate or LUMINEX beads (“capturing”) by means of a specific antibody, and the tyrosine phosphorylation is detected using a biotin-labelled anti-phosphotyrosine antibody and a streptavidin peroxidase conjugate by a chemoluminescence method or by means of a fluorescence-labelled anti-phosphotyrosine antibody.
In order to determine the activity of kinase inhibitors, cells are pre-treated with increasing concentrations of these compounds for 45 min and subsequently stimulated using IGF1 for 5 min. As internal control, the biological activity of the ligand IGF1 is checked and a concentration series of an IGF1R reference inhibitor measured.
The IC50 is the concentration that inhibits the measured activity by half. As to `O=C(c1ccc(Nc2ccnc(Cl)n2)cc1)c1cccc2cc[nH]c12`, the IC50 was 2600 nM.
In the case of `O=C(c1ccc(Nc2ccnc(Cl)n2)cc1)c1cccc2c1NCC2` it was 7850 nM; in that of `O=C(c1ccc(Nc2nccc(NCc3cccnc3)n2)cc1)c1cccc2c1NCC2`, 2400 nM; in that of `COc1cc(Nc2nccc(Nc3ccc(C(=O)c4cccc5cc[nH]c45)cc3)n2)cc(OC)c1OC`, 2200 nM.
Next, `O=C(c1ccc(Nc2ccnc(Nc3ccc(C(=O)c4cccc5cc[nH]c45)cc3)n2)cc1)c1cccc2cc[nH]c12`: 1800 nM; `N#Cc1c[nH]c2c(C(=O)c3ccc(Nc4ccnc(Nc5ccc(C(=O)c6cccc7c(C#N)c[nH]c67)cc5)n4)cc3)cccc12`: 490 nM; `N#CCCNc1nccc(Nc2ccc(C(=O)c3cccc4cc[nH]c34)cc2)n1`: 3100 nM.
Turning to `O=C(c1ccc(Nc2ccnc(NCC3CC(O)C3)n2)cc1)c1cccc2cc[nH]c12` (stereo not drawn), the IC50 is 1200 nM.
In the case of `O=C(c1ccc(Nc2ccnc(Nc3ncc[nH]3)n2)cc1)c1cccc2cc[nH]c12` it was 150 nM.
`O=C(c1c[nH]nc1Nc1nccc(Nc2cnc3ccccc3c2)n1)c1cccc2cc[nH]c12`: the IC50 came to 630 nM.
Next, `O=C(c1ccc(Nc2ccnc(Nc3cc(-c4ccccc4)[nH]n3)n2)cc1)c1cccc2cc[nH]c12`: 10000 nM.
With `Cc1cc(Nc2nccc(Nc3ccc(C(=O)c4cccc5cc[nH]c45)cc3)n2)n[nH]1`, the IC50 is 2900 nM.
Next, `O=C(c1ccc(Nc2ccnc(Nc3cc(-c4ccco4)[nH]n3)n2)cc1)c1cccc2cc[nH]c12`: 15000 nM; `CC(C)(C)c1cc(Nc2nccc(Nc3ccc(C(=O)c4cccc5cc[nH]c45)cc3)n2)n[nH]1`: 12000 nM.
In the case of `O=C(c1ccc(Nc2ccnc(Nc3cc[nH]n3)n2)cc1)c1cccc2cc[nH]c12` it was 2400 nM.
